Test results: the kinase profiling compilation of Christmann-Franck et al. (2016)

Experiments:
Assay in all cases: KINOMEscan competition binding
Conditions in all cases: compound 10.0 µM
[1] = target: AAK1 (human) (UniProt Q2M2I8)
[2] = target: ACVR1 (human) (UniProt Q04771)
[3] = target: AKT2 (human) (UniProt P31751)
[4] = target: AKT3 (human) (UniProt Q9Y243)
[5] = target: AURKC (human) (UniProt Q9UQB9)
[6] = target: BMPR1B (human) (UniProt O00238)
[7] = target: CAMK2A (human) (UniProt Q9UQM7)
[8] = target: CAMKK2 (human) (UniProt Q96RR4)
[9] = target: CDK15 (human) (UniProt Q96Q40)
[10] = target: CDK19 (human) (UniProt Q9BWU1)
[11] = target: CLK2 (human) (UniProt P49760)
[12] = target: CSNK1G2 (human) (UniProt P78368)
[13] = target: EPHA6 (human) (UniProt Q9UF33)
[14] = target: EPHB4 (human) (UniProt P54760)
[15] = target: FES (human) (UniProt P07332)
[16] = target: FGFR4 (human) (UniProt P22455)
[17] = target: GSK3A (human) (UniProt P49840)
[18] = target: IKBKB (human) (UniProt O14920)
[19] = target: LCK (human) (UniProt P06239)
[20] = target: MAP3K7 (human) (UniProt O43318)
[21] = target: MAP3K9 (human) (UniProt P80192)
[22] = target: MAPK10 (human) (UniProt P53779)
[23] = target: MERTK (human) (UniProt Q12866)
[24] = target: MYLK4 (human) (UniProt Q86YV6)
[25] = target: MYO3A (human) (UniProt Q8NEV4)
[26] = target: NEK2 (human) (UniProt P51955)
[27] = target: NLK (human) (UniProt Q9UBE8)
[28] = target: NUAK2 (human) (UniProt Q9H093)
[29] = target: PIM3 (human) (UniProt Q86V86)
[30] = target: PIP5K1A (human) (UniProt Q99755)
[31] = target: PKMYT1 (human) (UniProt Q99640)
[32] = target: PTK2 (human) (UniProt Q05397)
[33] = target: RPS6KA2 KD1 (human) (UniProt Q15349)
[34] = target: SIK1 (human) (UniProt P57059)
[35] = target: STK24 (human) (UniProt Q9Y6E0)
[36] = target: STK32C (human) (UniProt Q86UX6)
[37] = target: STK35 (human) (UniProt Q8TDR2)
[38] = target: STK4 (human) (UniProt Q13043)
[39] = target: TAOK3 (human) (UniProt Q9H2K8)
[40] = target: TGFBR1 (human) (UniProt P36897)

Chain of CDK15 (human) (Q96Q40 whole entry, looked up): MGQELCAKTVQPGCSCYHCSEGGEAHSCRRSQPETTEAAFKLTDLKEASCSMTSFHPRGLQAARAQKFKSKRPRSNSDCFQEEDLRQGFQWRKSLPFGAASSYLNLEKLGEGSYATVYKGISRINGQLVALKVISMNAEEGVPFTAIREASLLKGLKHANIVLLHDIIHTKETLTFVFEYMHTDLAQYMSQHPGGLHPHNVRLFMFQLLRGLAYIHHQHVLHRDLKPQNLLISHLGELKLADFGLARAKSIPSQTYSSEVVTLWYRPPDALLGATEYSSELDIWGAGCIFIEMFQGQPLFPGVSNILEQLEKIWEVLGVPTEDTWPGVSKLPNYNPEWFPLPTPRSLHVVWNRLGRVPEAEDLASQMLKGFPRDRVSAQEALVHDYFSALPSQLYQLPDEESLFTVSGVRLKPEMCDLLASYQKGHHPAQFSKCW
Chain of MAP3K9 (human) (P80192 whole entry, looked up): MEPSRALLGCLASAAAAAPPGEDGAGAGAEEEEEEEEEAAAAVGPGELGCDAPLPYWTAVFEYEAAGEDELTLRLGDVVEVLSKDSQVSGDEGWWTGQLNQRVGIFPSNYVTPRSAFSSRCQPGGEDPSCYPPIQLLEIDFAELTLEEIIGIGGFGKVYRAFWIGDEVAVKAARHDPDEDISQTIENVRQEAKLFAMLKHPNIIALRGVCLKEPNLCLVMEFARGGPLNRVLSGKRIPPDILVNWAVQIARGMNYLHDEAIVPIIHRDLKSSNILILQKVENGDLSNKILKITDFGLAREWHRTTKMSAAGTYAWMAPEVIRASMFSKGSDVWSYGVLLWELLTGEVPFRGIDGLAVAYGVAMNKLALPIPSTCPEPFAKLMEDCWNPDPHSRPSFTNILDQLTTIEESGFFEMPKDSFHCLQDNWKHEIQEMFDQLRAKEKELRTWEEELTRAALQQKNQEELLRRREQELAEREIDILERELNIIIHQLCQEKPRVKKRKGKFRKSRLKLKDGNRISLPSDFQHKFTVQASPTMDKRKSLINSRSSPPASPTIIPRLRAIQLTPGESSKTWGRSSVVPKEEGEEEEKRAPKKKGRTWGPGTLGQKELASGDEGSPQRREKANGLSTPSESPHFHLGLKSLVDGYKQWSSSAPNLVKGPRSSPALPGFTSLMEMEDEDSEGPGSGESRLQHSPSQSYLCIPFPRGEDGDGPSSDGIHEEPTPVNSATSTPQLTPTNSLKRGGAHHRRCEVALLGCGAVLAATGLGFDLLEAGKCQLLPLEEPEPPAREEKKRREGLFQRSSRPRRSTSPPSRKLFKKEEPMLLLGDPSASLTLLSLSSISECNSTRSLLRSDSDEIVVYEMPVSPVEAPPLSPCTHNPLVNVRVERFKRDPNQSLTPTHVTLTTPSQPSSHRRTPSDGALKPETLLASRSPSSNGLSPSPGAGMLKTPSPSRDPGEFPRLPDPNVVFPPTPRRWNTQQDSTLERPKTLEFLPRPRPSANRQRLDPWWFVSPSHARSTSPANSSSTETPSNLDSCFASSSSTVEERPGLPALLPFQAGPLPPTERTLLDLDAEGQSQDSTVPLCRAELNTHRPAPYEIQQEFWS
Chain of AKT2 (human) (P31751 whole entry, looked up): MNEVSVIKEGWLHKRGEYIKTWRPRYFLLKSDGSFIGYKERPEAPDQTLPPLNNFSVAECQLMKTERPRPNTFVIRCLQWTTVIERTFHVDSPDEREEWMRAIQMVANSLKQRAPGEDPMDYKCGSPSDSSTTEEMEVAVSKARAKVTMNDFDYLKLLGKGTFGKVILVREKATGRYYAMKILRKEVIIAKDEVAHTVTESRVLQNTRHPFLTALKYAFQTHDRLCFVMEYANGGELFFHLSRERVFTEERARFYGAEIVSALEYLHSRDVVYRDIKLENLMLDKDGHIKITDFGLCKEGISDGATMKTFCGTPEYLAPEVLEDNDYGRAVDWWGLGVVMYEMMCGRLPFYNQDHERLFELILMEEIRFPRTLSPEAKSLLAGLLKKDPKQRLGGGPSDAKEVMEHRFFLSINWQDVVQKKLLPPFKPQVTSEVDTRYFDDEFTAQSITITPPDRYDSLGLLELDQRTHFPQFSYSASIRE
Chain of PIP5K1A (human) (Q99755 whole entry, looked up): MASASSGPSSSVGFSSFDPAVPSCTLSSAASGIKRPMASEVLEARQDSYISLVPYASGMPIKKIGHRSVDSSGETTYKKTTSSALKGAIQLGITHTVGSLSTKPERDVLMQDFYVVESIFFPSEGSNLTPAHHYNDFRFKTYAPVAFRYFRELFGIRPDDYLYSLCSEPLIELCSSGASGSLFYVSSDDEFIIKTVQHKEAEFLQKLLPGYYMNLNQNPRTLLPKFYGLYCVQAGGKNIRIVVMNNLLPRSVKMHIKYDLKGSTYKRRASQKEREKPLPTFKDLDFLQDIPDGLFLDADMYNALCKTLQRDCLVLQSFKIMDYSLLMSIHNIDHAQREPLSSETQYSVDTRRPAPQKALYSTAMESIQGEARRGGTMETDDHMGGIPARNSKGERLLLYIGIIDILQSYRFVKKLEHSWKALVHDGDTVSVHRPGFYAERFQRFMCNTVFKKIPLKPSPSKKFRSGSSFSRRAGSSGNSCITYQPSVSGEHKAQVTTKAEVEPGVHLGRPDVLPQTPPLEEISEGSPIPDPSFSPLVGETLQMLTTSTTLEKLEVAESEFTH
Chain of NEK2 (human) (P51955 whole entry, looked up): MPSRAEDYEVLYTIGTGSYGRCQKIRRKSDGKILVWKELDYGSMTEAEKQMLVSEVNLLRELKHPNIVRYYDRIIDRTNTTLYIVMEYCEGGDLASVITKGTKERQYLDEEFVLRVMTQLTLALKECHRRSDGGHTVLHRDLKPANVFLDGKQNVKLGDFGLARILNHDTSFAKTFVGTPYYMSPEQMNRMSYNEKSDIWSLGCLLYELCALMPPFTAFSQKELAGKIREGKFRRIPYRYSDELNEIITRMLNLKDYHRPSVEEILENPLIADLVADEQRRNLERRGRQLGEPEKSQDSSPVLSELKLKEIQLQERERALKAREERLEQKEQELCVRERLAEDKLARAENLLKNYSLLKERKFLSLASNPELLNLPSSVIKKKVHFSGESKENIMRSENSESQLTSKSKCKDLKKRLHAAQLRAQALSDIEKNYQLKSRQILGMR
Chain of MYLK4 (human) (Q86YV6 whole entry, looked up): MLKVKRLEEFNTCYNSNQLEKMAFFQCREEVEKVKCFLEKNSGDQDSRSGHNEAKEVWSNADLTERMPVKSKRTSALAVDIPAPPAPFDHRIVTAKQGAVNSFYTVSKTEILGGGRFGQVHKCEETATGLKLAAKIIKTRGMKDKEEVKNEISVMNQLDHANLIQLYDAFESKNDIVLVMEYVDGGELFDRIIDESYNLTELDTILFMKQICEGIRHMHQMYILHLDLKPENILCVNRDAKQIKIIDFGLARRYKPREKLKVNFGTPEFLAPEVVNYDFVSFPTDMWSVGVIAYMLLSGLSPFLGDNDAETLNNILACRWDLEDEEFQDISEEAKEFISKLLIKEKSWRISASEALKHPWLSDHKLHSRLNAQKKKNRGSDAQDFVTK
Chain of LCK (human) (P06239 whole entry, looked up): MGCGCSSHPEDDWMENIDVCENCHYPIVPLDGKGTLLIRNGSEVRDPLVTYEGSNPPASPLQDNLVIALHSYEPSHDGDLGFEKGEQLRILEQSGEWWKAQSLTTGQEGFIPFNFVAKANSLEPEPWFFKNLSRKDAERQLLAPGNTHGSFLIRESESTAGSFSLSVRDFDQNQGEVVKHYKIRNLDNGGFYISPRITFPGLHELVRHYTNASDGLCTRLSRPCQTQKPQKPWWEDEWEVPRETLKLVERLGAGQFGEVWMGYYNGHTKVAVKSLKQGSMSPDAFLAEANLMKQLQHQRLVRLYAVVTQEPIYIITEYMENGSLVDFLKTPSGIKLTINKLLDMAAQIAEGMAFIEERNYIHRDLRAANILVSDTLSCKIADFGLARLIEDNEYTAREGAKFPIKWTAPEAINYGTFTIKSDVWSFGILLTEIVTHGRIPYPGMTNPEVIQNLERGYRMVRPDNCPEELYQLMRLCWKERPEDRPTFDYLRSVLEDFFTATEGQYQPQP
Chain of ACVR1 (human) (Q04771 whole entry, looked up): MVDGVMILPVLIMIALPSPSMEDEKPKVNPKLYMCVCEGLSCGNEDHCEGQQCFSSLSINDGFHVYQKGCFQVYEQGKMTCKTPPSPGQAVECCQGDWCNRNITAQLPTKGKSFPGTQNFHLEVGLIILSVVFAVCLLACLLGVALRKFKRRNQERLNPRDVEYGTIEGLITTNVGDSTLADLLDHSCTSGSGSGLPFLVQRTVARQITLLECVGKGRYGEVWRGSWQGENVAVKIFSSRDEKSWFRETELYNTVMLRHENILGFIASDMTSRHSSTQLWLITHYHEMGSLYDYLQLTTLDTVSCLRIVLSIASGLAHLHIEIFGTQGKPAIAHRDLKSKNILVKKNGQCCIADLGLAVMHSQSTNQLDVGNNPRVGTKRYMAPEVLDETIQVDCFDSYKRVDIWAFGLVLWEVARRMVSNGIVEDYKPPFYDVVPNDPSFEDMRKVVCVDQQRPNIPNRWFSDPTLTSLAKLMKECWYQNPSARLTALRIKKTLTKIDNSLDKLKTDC
Chain of CAMKK2 (human) (Q96RR4 whole entry, looked up): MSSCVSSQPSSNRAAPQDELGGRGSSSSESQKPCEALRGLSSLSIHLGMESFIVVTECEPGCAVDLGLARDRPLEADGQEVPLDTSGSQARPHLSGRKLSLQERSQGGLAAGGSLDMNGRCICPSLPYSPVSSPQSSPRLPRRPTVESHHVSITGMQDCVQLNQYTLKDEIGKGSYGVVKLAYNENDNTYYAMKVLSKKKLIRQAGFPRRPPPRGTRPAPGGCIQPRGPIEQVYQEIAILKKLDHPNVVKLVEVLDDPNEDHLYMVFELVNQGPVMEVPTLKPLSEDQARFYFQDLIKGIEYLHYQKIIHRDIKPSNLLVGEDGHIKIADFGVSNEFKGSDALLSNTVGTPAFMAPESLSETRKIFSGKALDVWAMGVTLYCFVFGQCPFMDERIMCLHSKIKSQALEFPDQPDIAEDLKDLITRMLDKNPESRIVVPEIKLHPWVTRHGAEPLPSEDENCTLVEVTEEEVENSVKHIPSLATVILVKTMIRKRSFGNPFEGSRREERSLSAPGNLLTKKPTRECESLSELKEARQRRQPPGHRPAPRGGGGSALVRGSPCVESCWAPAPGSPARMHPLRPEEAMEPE

SMILES: CN(C)C/C=C/C(=O)Nc1cccc(Nc2ncc3c(n2)N(C)c2ccccc2C(=O)N3C)c1
- kinase still bound, per cent of control [1]: 20%
- kinase still bound, per cent of control [2]: 45%
- kinase still bound, per cent of control [3]: 99%
- kinase still bound, per cent of control [4]: 100%
- kinase still bound, per cent of control [5]: 9.2%
- kinase still bound, per cent of control [6]: 84%
- kinase still bound, per cent of control [7]: 32%
- kinase still bound, per cent of control [8]: 8.1%
- kinase still bound, per cent of control [9]: 84%
- kinase still bound, per cent of control [10]: 100%
- kinase still bound, per cent of control [11]: 41%
- kinase still bound, per cent of control [12]: 69%
- kinase still bound, per cent of control [13]: 91%
- kinase still bound, per cent of control [14]: 83%
- kinase still bound, per cent of control [15]: 67%
- kinase still bound, per cent of control [16]: 22%
- kinase still bound, per cent of control [17]: 69%
- kinase still bound, per cent of control [18]: 100%
- kinase still bound, per cent of control [19]: 1.2%
- kinase still bound, per cent of control [20]: 6.2%
- kinase still bound, per cent of control [21]: 89%
- kinase still bound, per cent of control [22]: 80%
- kinase still bound, per cent of control [23]: 46%
- kinase still bound, per cent of control [24]: 86%
- kinase still bound, per cent of control [25]: 100%
- kinase still bound, per cent of control [26]: 62%
- kinase still bound, per cent of control [27]: 36%
- kinase still bound, per cent of control [28]: 2.6%
- kinase still bound, per cent of control [29]: 100%
- kinase still bound, per cent of control [30]: 9.9%
- kinase still bound, per cent of control [31]: 100%
- kinase still bound, per cent of control [32]: 14%
- kinase still bound, per cent of control [33]: 50%
- kinase still bound, per cent of control [34]: 2.7%
- kinase still bound, per cent of control [35]: 98%
- kinase still bound, per cent of control [36]: 93%
- kinase still bound, per cent of control [37]: 89%
- kinase still bound, per cent of control [38]: 49%
- kinase still bound, per cent of control [39]: 0%
- kinase still bound, per cent of control [40]: 25%

SMILES: COc1cc(C(=O)NC2CCN(C)CC2)ccc1Nc1ncc2c(n1)N(C1CCCC1)C(C)CC(=O)N2C (stereo not given)
- kinase still bound, per cent of control [1]: 100%
- kinase still bound, per cent of control [2]: 100%
- kinase still bound, per cent of control [3]: 100%
- kinase still bound, per cent of control [4]: 100%
- kinase still bound, per cent of control [5]: 100%
- kinase still bound, per cent of control [6]: 100%
- kinase still bound, per cent of control [7]: 21%
- kinase still bound, per cent of control [8]: 24%
- kinase still bound, per cent of control [9]: 100%
- kinase still bound, per cent of control [10]: 100%
- kinase still bound, per cent of control [11]: 6.2%
- kinase still bound, per cent of control [12]: 100%
- kinase still bound, per cent of control [13]: 100%
- kinase still bound, per cent of control [14]: 100%
- kinase still bound, per cent of control [15]: 100%
- kinase still bound, per cent of control [16]: 100%
- kinase still bound, per cent of control [17]: 100%
- kinase still bound, per cent of control [18]: 100%
- kinase still bound, per cent of control [19]: 100%
- kinase still bound, per cent of control [20]: 100%
- kinase still bound, per cent of control [21]: 100%
- kinase still bound, per cent of control [22]: 100%
- kinase still bound, per cent of control [23]: 100%
- kinase still bound, per cent of control [24]: 100%
- kinase still bound, per cent of control [25]: 100%
- kinase still bound, per cent of control [26]: 100%
- kinase still bound, per cent of control [27]: 100%
- kinase still bound, per cent of control [28]: 100%
- kinase still bound, per cent of control [29]: 100%
- kinase still bound, per cent of control [30]: 100%
- kinase still bound, per cent of control [31]: 100%
- kinase still bound, per cent of control [32]: 0.4%
- kinase still bound, per cent of control [33]: 100%
- kinase still bound, per cent of control [34]: 100%
- kinase still bound, per cent of control [35]: 100%
- kinase still bound, per cent of control [36]: 100%
- kinase still bound, per cent of control [37]: 100%
- kinase still bound, per cent of control [38]: 100%
- kinase still bound, per cent of control [39]: 100%
- kinase still bound, per cent of control [40]: 100%
